Where two headings read alike, the source gives them in different places.
What was measured:
Conditions in all cases: Conc 20 μM
OXPHOS gene expression = type: cell-based, mouse
cytochrome c = type: cell-based, mouse
[1] = tested on: cellular dehydrogenase activity
C2C12 myotubes = tested on: C2C12 myotubes
reactive oxygen species = type: cell-based, mouse
nuOXPHOS transcripts = type: cell-based, mouse
[2] = tested on: mitochondrial membrane potential; type: cell-based, mouse
mtOXPHOS transcripts = type: cell-based, mouse
[3] = normalized composite Z-score vs mock-treated (DMSO) wells
[4] = composite Z-score vs mock-treated (DMSO) wells
[5] = normalized score vs mock-treated (DMSO) wells
[6] = composite Z-score vs DMSO wells

In the case of `CC(C)(O)[C@H]1CC[C@]2(C)[C@H]3CC[C@@H]4[C@@]5(C)CCCC(C)(C)[C@@H]5[C@@H](O)C[C@@]4(C)[C@]3(C)CC[C@@H]12` [zeorin], the GE-HTS (OXPHOS gene expression; [3]) is reported as 0.381, the cyt c (cytochrome c; [3]) is reported as 0.088 and the MTT [1, 3] is reported as −0.387. The Viability (C2C12 myotubes; [3]) was 0.495, the ROS (reactive oxygen species; [3]) was 0.166 and the nucOX (nuOXPHOS transcripts; [3]) was 0.278. The ΔΨm [2, 3] was −0.941 and the mitoOX (mtOXPHOS transcripts; [3]) was 0.571.

Molecule `COC[C@]12CN(C=O)[C@@H]3[C@@H]4[C@H](OC)[C@H]1[C@@]3([C@@H](OC)C[C@H]2O)[C@@H]1C[C@@]2(O)[C@H](OC(=O)c3ccccc3)[C@@H]1[C@]4(OC(C)=O)[C@@H](O)[C@@H]2OC` [oxonitine] has a GE-HTS (OXPHOS gene expression; [4]) of −0.636, a cyt c (cytochrome c; [4]) of 0.394 and an MTT [1, 4] of −1.730. The Viability (C2C12 myotubes; [4]) was −1.338, the ROS (reactive oxygen species; [4]) was −0.167 and the nucOX (nuOXPHOS transcripts; [4]) was −0.938. The ΔΨm [2, 4] was −1.019 and the mitoOX (mtOXPHOS transcripts; [4]) was 0.147.

For `CC1(C)C2C[C@@H](O)[C@]3(C)C(CC[C@@]4(C)[C@H](c5ccoc5)OC(=O)C5OC543)[C@@]2(C)C(=O)C[C@H]1O` (stereo partly drawn) [1-deacetoxy-1-oxo-3,7-dideacetylkhivorin], the “GE-HTS (composite Z-score)” value (OXPHOS gene expression; [5]) was −0.525, the “cyt c (composite Z-score)” value (cytochrome c; [5]) was −0.411 and the “MTT (composite Z-score)” value [1, 5] was −1.776. The “Viability (composite Z-score)” value (C2C12 myotubes; [5]) was −0.413, the “ROS (composite Z-score)” value (reactive oxygen species; [5]) was 0.626 and the “nucOX (composite Z-score)” value (nuOXPHOS transcripts; [5]) was −0.704. The “ΔΨm (composite Z-score)” value [2, 5] was −0.321 and the “mitoOX (composite Z-score)” value (mtOXPHOS transcripts; [5]) was −0.020.

`CC(=O)C=CC1C(C)(O)CCC2C(C)(C)CCCC21C` (stereo not drawn) [8-hydroxy-15,16-bisnor-11-labden-13-one] was tested, and the GE-HTS (OXPHOS gene expression; [3]) was −0.554, the cyt c (cytochrome c; [3]) was 0.550 and the MTT [1, 3] was −0.248. For the same molecule, the Viability (C2C12 myotubes; [3]) was −1.702, the ROS (reactive oxygen species; [3]) was 0.504 and the nucOX (nuOXPHOS transcripts; [3]) was −0.078. The ΔΨm [2, 3] was 0.798 and the mitoOX (mtOXPHOS transcripts; [3]) was −1.430.

`CC(C)[C@@H](C)/C=C/[C@@H](C)[C@H]1CC[C@H]2C3=CC=C4C[C@@H](O)CC[C@]4(C)[C@H]3CC[C@]12C` [ergosterol] was tested, and the GE-HTS (OXPHOS gene expression; composite Z-score vs DMSO) was 0.231, the cyt c (cytochrome c; composite Z-score vs DMSO) was 0.386 and the MTT ([1]; composite Z-score vs DMSO) was −1.864. It also gave a Viability (C2C12 myotubes; composite Z-score vs DMSO) of −0.792, an ROS (reactive oxygen species; composite Z-score vs DMSO) of −0.198 and a nucOX (nuOXPHOS transcripts; composite Z-score vs DMSO) of 0.420. The ΔΨm ([2]; composite Z-score vs DMSO) was −0.489 and the mitoOX (mtOXPHOS transcripts; composite Z-score vs DMSO) was −0.240.

With `CC1(C)C=Cc2cc3ccc(=O)oc3cc2O1` [xanthyletin] the GE-HTS (OXPHOS gene expression; [4]) was 1.029, the cyt c (cytochrome c; [4]) was −0.029 and the MTT [1, 4] was −1.741. It also gave a Viability (C2C12 myotubes; [4]) of −0.674, an ROS (reactive oxygen species; [4]) of 0.217 and a nucOX (nuOXPHOS transcripts; [4]) of 0.924. The ΔΨm [2, 4] was −0.220 and the mitoOX (mtOXPHOS transcripts; [4]) was 1.085.

`COc1c(-c2coc3cc4c(cc3c2=O)CC(O)C(C)(C)O4)ccc2c1C=CC(C)(C)O2` (stereo not drawn) [mundulone, reference compound] showed a GE-HTS (OXPHOS gene expression; [3]) of −1.719, a cyt c (cytochrome c; [3]) of −0.843 and an MTT [1, 3] of −2.487. It also gave a Viability (C2C12 myotubes; [3]) of −1.113, an ROS (reactive oxygen species; [3]) of −0.141 and a nucOX (nuOXPHOS transcripts; [3]) of −1.888. For the same molecule, the ΔΨm [2, 3] was 3.037 and the mitoOX (mtOXPHOS transcripts; [3]) was −1.091.

`CC1(C)O[C@@H]2C[C@H]3[C@@H]4CCC5=CC(=O)CC[C@]5(C)[C@@]4(F)[C@@H](O)C[C@]3(C)[C@]2(C(=O)CCl)O1` [halcinonide] showed a GE-HTS (OXPHOS gene expression; composite Z-score vs DMSO) of 0.492, a cyt c (cytochrome c; composite Z-score vs DMSO) of −0.794 and an MTT ([1]; composite Z-score vs DMSO) of −0.789. For the same molecule, the Viability (C2C12 myotubes; composite Z-score vs DMSO) was 0.106, the ROS (reactive oxygen species; composite Z-score vs DMSO) was 0.624 and the nucOX (nuOXPHOS transcripts; composite Z-score vs DMSO) was 0.284. It also gave a ΔΨm ([2]; composite Z-score vs DMSO) of 0.570 and a mitoOX (mtOXPHOS transcripts; composite Z-score vs DMSO) of 0.831.

Work on `Cc1c(C(=O)O)c(O)cc2c1C(=O)c1c(O)c([C@@H]3O[C@H](CO)[C@@H](O)[C@H](O)[C@H]3O)c(O)c(O)c1C2=O` [carminic acid] yielded a GE-HTS (OXPHOS gene expression; composite Z-score vs DMSO) of −0.727, a cyt c (cytochrome c; composite Z-score vs DMSO) of −0.243 and an MTT ([1]; composite Z-score vs DMSO) of −1.295. The Viability (C2C12 myotubes; composite Z-score vs DMSO) was −0.905, the ROS (reactive oxygen species; composite Z-score vs DMSO) was 0.083 and the nucOX (nuOXPHOS transcripts; composite Z-score vs DMSO) was −0.662. For the same molecule, the ΔΨm ([2]; composite Z-score vs DMSO) was −0.378 and the mitoOX (mtOXPHOS transcripts; composite Z-score vs DMSO) was −0.671.

`N[C@@H](Cc1ccc(N(CCCl)CCCl)cc1)C(=O)O` [melphalan] showed a GE-HTS (OXPHOS gene expression; [6]) of 1.449, a cyt c (cytochrome c; [6]) of −0.954 and an MTT [1, 6] of −1.387. It also gave a Viability (C2C12 myotubes; [6]) of −0.360, an ROS (reactive oxygen species; [6]) of −0.265 and a nucOX (nuOXPHOS transcripts; [6]) of 1.282. The ΔΨm [2, 6] was 0.151 and the mitoOX (mtOXPHOS transcripts; [6]) was 1.453.

In the case of `COC(=O)N/N=C/c1c[n+]([O-])c2ccccc2[n+]1[O-]` [carbadox], the GE-HTS (OXPHOS gene expression; composite Z-score vs DMSO) is reported as −0.802, the cyt c (cytochrome c; composite Z-score vs DMSO) is reported as −0.250 and the MTT ([1]; composite Z-score vs DMSO) is reported as −1.334. For the same molecule, the Viability (C2C12 myotubes; composite Z-score vs DMSO) was −0.905, the ROS (reactive oxygen species; composite Z-score vs DMSO) was −0.079 and the nucOX (nuOXPHOS transcripts; composite Z-score vs DMSO) was −0.599. For the same molecule, the ΔΨm ([2]; composite Z-score vs DMSO) was −1.394 and the mitoOX (mtOXPHOS transcripts; composite Z-score vs DMSO) was −1.076.

`CC1(O)/C=C\C=C(\CO)C2CC(C)(C)C2(O)CC1` (stereo not drawn) [punctaporin B] was tested, and the GE-HTS (OXPHOS gene expression; [3]) was −0.242, the cyt c (cytochrome c; [3]) was 0.175 and the MTT [1, 3] was −0.596. For the same molecule, the Viability (C2C12 myotubes; [3]) was 0.554, the ROS (reactive oxygen species; [3]) was 0.731 and the nucOX (nuOXPHOS transcripts; [3]) was −0.049. The ΔΨm [2, 3] was −0.174 and the mitoOX (mtOXPHOS transcripts; [3]) was −0.555.

Reference: US20090143279A1 (priority 2007, published 2009)
